US20110263539A1, “SHIP 1 MODULATOR COMPOUNDS” (THE UNIVERSITY OF BRITISH COLUMBIA, priority 2006, published 2011)

System: SHIP+/+ bone marrow derived macrophages
Assay: LPS stimulation of SHIP+/+ bone marrow derived macrophages
Type: cell-based, mice
Protocol: Bone marrow cells were aspirated from 4 to 8 week old C57B16×129Sv mixed background mice and SHIP and SHIP cells prepared as described previously. Bone marrow derived macrophages from SHIP^+/+ and SHIP^−/− mice were obtained and maintained in IMDM supplemented with 10% FCS, 150 μM MTG, 2% C127 cell conditioned medium as a source of macrophage colony stimulating factor (M-CSF) (macrophage medium)
LPS stimulation of macrophages. For the analysis of LPS-stimulated TNFα production, 2×10^5 cells were plated the night before in 24 well plates in macrophage medium. The next day, the medium was changed and AQX-016A or carrier was added to cells at the indicated concentrations for 30 min prior to the addition of 10 ng/mL LPS. Supernatants were collected for TNFα determination by ELISA (BD Biosciences, Mississauga, ON, Canada). For analysis of intracellular signaling, 2×10^6 cells were plated the night before in 6 cm tissue culture plates. The next day, the cells were cultured in macrophage medium without M-CSF for 1 hr at 37° C. and then pretreated with AQX-016A or carrier for 30 min prior to the addition of 10 ng/mL LPS for 15 min. Cells were washed with 4° C. PBS and resuspended in lysis buffer (50 mM Hepes, 2 mM EDTA, 1 mM NaVO4, 100 mM NaF, 50 mM NaPPi and 1% NP40) supplemented with Complete Protease Inhibitor Cocktail (Roche, Montreal, Canada). Lysates were rocked at 4° C. for 30 min and clarified by centrifuging 20 min at 12000×g. Lysates were then made 1× in Laemmli's buffer, boiled 2 min and loaded onto 7.5% SDS polyacrylamide […]. Immunoblot analysis for phospho PKB (Cell Signalling, Mississauga, Ont), SHIP and actin (Santa Cruz, Santa Cruz, Calif.) were carried out as described previously.
The target specificity and biological efficacy of AQX-016A were assessed by comparing AQX-016A's effects on PI3K-regulated processes in primary SHIP^+/+ vs SHIP^−/− macrophages and mast cells. […] LPS stimulation of macrophages is associated with a PIP3-dependent release of pro-inflammatory mediators such as TNFα. […]

EC50 for inhibition of TNFα production (LPS stimulated SHIP+/+ macrophages): submicromolar
SMILES: Cc1cc(O)cc2c1[C@]1(C)CCC3C(C)(C)CCC[C@]3(C)[C@H]1C2 (some centres unmarked) [Compound 100]
inhibition of TNFα production, SHIP+/+ vs SHIP−/− macrophages (LPS stimulated): selectively inhibited
